From US8992985B2, “Core-shell magnetic particles and related methods” (priority 2010, dated 2015)
Where two headings read alike, the source gives them in different places.

How the values were obtained:
[1] = in aquatic organisms; cited from earlier work
[2] = in human blood; cited from earlier work
[3] = test system: Escherichia coli ATCC 11229; assay: Broth microdilution MIC assay; assay type: cell-based; conditions: E. coli (−); LB broth, 37° C
Excerpt: (§1) The following microorganisms were used (American Type Culture Collection (ATCC), Manassas, Vir., or La Colección Española de Cultivos Tipo (CECT), Valencia, Spain): Gram-positive bacteria Staphylococcus aureus ATCC 25923 and ATCC 6538, Staphylococcus epidermidis CECT 4184, Lactococcus lactis ATCC 7963, Streptococcus phocae ATCC51973, Lactococcus garvieae ATCC2155, Gram-negative bacteria Pseudomonas aeruginosa CECT 110 and ATCC 15692, Escherichia coli ATCC 11229, and Salmonella enterica ATCC 13311. The bacteria were grown at 37° C. in Luria-Bertani (LB) broth (Sigma-Aldrich Chemical Co.) (pH 7.3), which was also used for dilutions. The […] inhibitory concentration (MIC) values of PHMBG and the particles were determined in vitro using a broth microdilution assay. The polymer or nanoparticles were dissolved or dispersed, respectively, with brief sonication; into small stock samples of sterile deionized water (10 mL, 3 mg/mL). Serial dilutions between 5 and 300 mg/L final concentration in the liquid medium were dispensed into sterile 96-well polystyrene culture Corning® Costar® cell plates (Sigma-Aldrich Chemical Co.). The diluted samples were inoculated with a suspension of the test bacterium on the liquid medium to a final concentration of approximately 10^4 cfu/mL. The MIC was defined as the lowest concentration of PHMBG polymer, PHMBG-PEI-M or PHMBG-M/SiO2 particles that inhibited bacterial growth after […] at 37° C. Measurements were conducted in triplicate. The precision of the MIC values was limited by the dilution factor and was estimated to be ±5 mg/L, Negative control experiments were conducted with the dilutions without bactericidal additives and no reduction in bacterial counts after 24 h was observed.
(§2) For testing the antiseptic properties of the core-shell magnetic nanoparticles of the invention, five Gram-positive and three Gram-negative bacteria were chosen to represent a wide range of waterborne microorganisms, all of which are pathogenic with the exception of L. lactis, which is extensively used in buttermilk and cheese production. Gram-positive S. aureus and S. epidermidis are well-known human pathogens; S. phocae is a fish and seal pathogen; and L. garvieae causes septicemic infections of fish and is the main risk factor for the Mediterranean European trout industry. […] Both PHMBG-M/SiO2 (t) and PHMBG-M/SiO2 (s) particle species were tested, as well as PHMBG solutions and PHMBG-PEI-M particle suspensions.

[4] = test system: Lactococcus garvieae ATCC2155; assay: Broth microdilution MIC assay; assay type: cell-based; conditions: L. garvieae (+); LB broth, 37° C
Excerpt: as §1, §2

[5] = test system: Lactococcus lactis ATCC 7963; assay: Broth microdilution MIC assay; assay type: cell-based; conditions: L. lactis (+); LB broth, 37° C
Excerpt: as §1, §2

Pseudomonas aeruginosa = assay: Broth microdilution MIC assay; assay type: cell-based; conditions: P. aeruginosa (−); LB broth, 37° C
Excerpt: as §1, §2

[6] = test system: Salmonella enterica ATCC 13311; assay: Broth microdilution MIC assay; assay type: cell-based; conditions: S. enterica (−); LB broth, 37° C
Excerpt: as §1, §2

Staphylococcus aureus = assay: Broth microdilution MIC assay; assay type: cell-based; conditions: S. aureus (+); LB broth, 37° C
Excerpt: as §1, §2

[7] = test system: Staphylococcus epidermidis CECT 4184; assay: Broth microdilution MIC assay; assay type: cell-based; conditions: S. epidermidis (+); LB broth, 37° C
Excerpt: as §1, §2

[8] = test system: Streptococcus phocae ATCC51973; assay: Broth microdilution MIC assay; assay type: cell-based; conditions: S. phocae (+); LB broth, 37° C
Excerpt: as §1, §2

Row | Compound | half-life [1] | half-life [2] | Minimum inhibitory concentrations (MIC) [3] [µg/mL] | Minimum inhibitory concentrations (MIC) [4] [µg/mL] | Minimum inhibitory concentrations (MIC) [5] [µg/mL] | Minimum inhibitory concentrations (MIC) (Pseudomonas aeruginosa) [µg/mL] | Minimum inhibitory concentrations (MIC) [6] [µg/mL] | Minimum inhibitory concentrations (MIC) (Staphylococcus aureus) [µg/mL] | Minimum inhibitory concentrations (MIC) [7] [µg/mL] | Minimum inhibitory concentrations (MIC) [8] [µg/mL]
1 | [CH3][Hg][Cl] [methylmercury] | about 72 days | about 50 days |  |  |  |  |  |  |  | 
2 | Poly(hexamethylene biguanide) [PHMBG] |  |  | 5 | 40 | 20 | 30 | 110 | 5 | 0.5 | 1.6
